# Several values for one entry are separate records, joined by “and”; a condition that tells them apart may be missing. Equal values may be shown once.
# Experiments:
# sEH [1] = assay type: in vivo, mouse (sEH-KO, C57BL/6); details: baseline
# [2] = Radiometabolite analysis of baboon arterial blood/plasma by RP-HPLC; assay type: in vivo, Papio anubis (baboon); details: 90 min post-injection
# sEH [3] = target: T1, sEH (Mus musculus, UniProt P34914); assay type: in vivo, mouse (CD-1); details: CD-1 mouse brain, high dose of blocker nor-fluoro-FNDP
# T1 sequence (P34914 1-554): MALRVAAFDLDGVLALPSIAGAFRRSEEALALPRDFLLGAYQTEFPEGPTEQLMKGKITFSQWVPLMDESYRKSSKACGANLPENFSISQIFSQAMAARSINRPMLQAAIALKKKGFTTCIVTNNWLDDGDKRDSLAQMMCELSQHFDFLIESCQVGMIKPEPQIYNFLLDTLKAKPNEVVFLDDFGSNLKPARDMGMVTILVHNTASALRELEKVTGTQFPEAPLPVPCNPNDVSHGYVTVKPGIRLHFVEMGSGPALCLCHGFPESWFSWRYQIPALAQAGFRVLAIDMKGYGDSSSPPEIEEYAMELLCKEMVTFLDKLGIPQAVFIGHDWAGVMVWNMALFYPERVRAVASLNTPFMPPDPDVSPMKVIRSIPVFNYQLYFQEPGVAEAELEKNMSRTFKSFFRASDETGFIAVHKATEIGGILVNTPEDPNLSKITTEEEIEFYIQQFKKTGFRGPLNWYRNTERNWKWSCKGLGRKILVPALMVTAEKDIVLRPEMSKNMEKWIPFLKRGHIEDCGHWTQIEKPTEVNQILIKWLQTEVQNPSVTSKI
# sEH [4] = experiment: Dynamic PET imaging of baboon brain, baseline and blocking with nor-fluoro-FNDP; assay type: in vivo, Papio anubis (baboon)
# [5] = Baseline regional brain biodistribution of ^18F-FNDP in CD-1 mice; assay type: in vivo, mouse (CD-1); details: IV, mean ± SD, n=3
# human sEH = details: read-out: human IC50; cited from earlier work
compound,measurement,setting,value
"O=C(NCCC(c1ccccc1)c1ccccc1)c1ccc([18F])nc1 [^18F-FNDP, N-(3,3-diphenylpropyl)-6-^18F-fluoronicotinamide]","Regional uptake in striatum, hippocampus and cortex","sEH [1]; C57BL6 control mice, 60 min post-injection",~ 1 %ID/g
same,Reduction of uptake in sEH-KO mice as compared with controls,sEH [1]; 60 min after radiotracer injection,~ 90%
same,Remaining parent compound in plasma radioactivity,[2],20% and ~ 20%
same,"Specific (blocked) binding in striatum, hippocampus and cortex",sEH [3],90%
same,Blockade in all brain regions,sEH [4]; baboon PET,95%
same,VT in cerebellum (average),"sEH [4]; baboon, baseline, Logan method",7.9 ± 1.0
same,VT in frontal/temporal gyrus and hippocampus,"sEH [4]; baboon, baseline, Logan method",> 10.1
same,"VT in globus pallidus, corpus callosum, white matter, hypothalamus and thalamus","sEH [4]; baboon, baseline, Logan method",> 8.1
same,"VT in insula, putamen, caudate and amygdala","sEH [4]; baboon, baseline, Logan method",> 11.5
same,Specificity of sEH radiolabeling,sEH [4]; both animal species (mouse and baboon),up to 95%
same,"Regional brain uptake, cortex",[5]; 5 min,4.69 ± 0.21 %ID/g tissue
same,"Regional brain uptake, hippocampus",[5]; 5 min,3.29 ± 0.54 %ID/g tissue
same,"Regional brain uptake, hypothalamus",[5]; 5 min,2.59 ± 0.18 %ID/g tissue
same,"Regional brain uptake, rest of brain",[5]; 5 min,3.53 ± 0.11 %ID/g tissue
same,"Regional brain uptake, striatum",[5]; 5 min,5.24 ± 0.45 %ID/g tissue
same,"Regional brain uptake, cerebellum",[5]; 15 min,1.31 ± 1.01 %ID/g tissue
same,"Regional brain uptake, cortex",[5]; 15 min,2.92 ± 0.36 %ID/g tissue
same,"Regional brain uptake, hippocampus",[5]; 15 min,2.51 ± 0.34 %ID/g tissue
same,"Regional brain uptake, hypothalamus",[5]; 15 min,1.66 ± 0.28 %ID/g tissue
same,"Regional brain uptake, rest of brain",[5]; 15 min,2.37 ± 0.34 %ID/g tissue
same,"Regional brain uptake, striatum",[5]; 15 min,3.29 ± 0.36 %ID/g tissue
same,"Regional brain uptake, cerebellum",[5]; 30 min,1.09 ± 0.16 %ID/g tissue
same,"Regional brain uptake, cortex",[5]; 30 min,2.07 ± 0.05 %ID/g tissue
same,"Regional brain uptake, hippocampus",[5]; 30 min,1.76 ± 0.15 %ID/g tissue
same,"Regional brain uptake, hypothalamus",[5]; 30 min,1.04 ± 0.08 %ID/g tissue
same,"Regional brain uptake, rest of brain",[5]; 30 min,1.64 ± 0.06 %ID/g tissue
same,"Regional brain uptake, striatum",[5]; 30 min,2.32 ± 0.15 %ID/g tissue
same,"Regional brain uptake, cerebellum",[5]; 60 min,0.52 ± 0.07 %ID/g tissue
same,"Regional brain uptake, cortex",[5]; 60 min,0.87 ± 0.14 %ID/g tissue
same,"Regional brain uptake, hippocampus",[5]; 60 min,0.81 ± 0.15 %ID/g tissue
same,"Regional brain uptake, hypothalamus",[5]; 60 min,0.51 ± 0.07 %ID/g tissue
same,"Regional brain uptake, rest of brain",[5]; 60 min,0.71 ± 0.10 %ID/g tissue
same,"Regional brain uptake, striatum",[5]; 60 min,1.07 ± 0.14 %ID/g tissue
same,"Regional brain uptake, cerebellum",[5]; 90 min,0.29 ± 0.04 %ID/g tissue
same,"Regional brain uptake, cortex",[5]; 90 min,0.45 ± 0.05 %ID/g tissue
same,"Regional brain uptake, hippocampus",[5]; 90 min,0.43 ± 0.06 %ID/g tissue
same,"Regional brain uptake, hypothalamus",[5]; 90 min,0.31 ± 0.05 %ID/g tissue
same,"Regional brain uptake, rest of brain",[5]; 90 min,0.38 ± 0.04 %ID/g tissue
same,"Regional brain uptake, striatum",[5]; 90 min,0.54 ± 0.07 %ID/g tissue

# Reference: paper PMC5095511 (Journal of nuclear medicine : official publication, Society …, 2016)
